This note sets out measurements from patent US20260216164A1, “INDOLE COMPOUND DECOMPOSING IKZF2, AND USE THEREOF” (KOREA RESEARCH INSTITUTE OF CHEMICAL TECHNOLOGY, priority 2023, published 2026).

In the test the target is Helios (IKZF2) (Homo sapiens, UniProt Q96SW2+Q9UKS7). Kind of test: Screening of Helios protein degraders using Nano-Glo HiBiT cell line (HiBiT-IKZF2). It is filed as cell-based. Conditions: 6 hours, HiBiT-Helios knock-in Jurkat cells; for remaining activity at 1 µM: compound 1 μM, read-out: HiBiT-IKZF2 Residual amount of Helios (%) 1 μM; for remaining activity at 10 µM: compound 10 μM, read-out: HiBiT-IKZF2 Residual amount of Helios (%) 10 μM. The method, then:
To observe intracellular degradation of Helios, the Nano-Glo HiBiT detection system (Promega) was employed. […] The cells expressing Helios fused with HiBiT were validated using the Nano-Glo HiBiT detection system (Promega) according to a predetermined protocol, isolated as single cells, and cultured in complete medium to establish a monoclonal cell line.
After 6 hours, the Nano-Glo HiBiT detection reagent was added to each well in an equal volume to the cell culture medium and incubated at room temperature for 10 minutes. Following incubation, the HiBiT luminescence signal was measured using a microplate reader (Perkin Elmer).

Helios (IKZF2), sequence (Q9UKS7 whole entry, the tested form may be a part): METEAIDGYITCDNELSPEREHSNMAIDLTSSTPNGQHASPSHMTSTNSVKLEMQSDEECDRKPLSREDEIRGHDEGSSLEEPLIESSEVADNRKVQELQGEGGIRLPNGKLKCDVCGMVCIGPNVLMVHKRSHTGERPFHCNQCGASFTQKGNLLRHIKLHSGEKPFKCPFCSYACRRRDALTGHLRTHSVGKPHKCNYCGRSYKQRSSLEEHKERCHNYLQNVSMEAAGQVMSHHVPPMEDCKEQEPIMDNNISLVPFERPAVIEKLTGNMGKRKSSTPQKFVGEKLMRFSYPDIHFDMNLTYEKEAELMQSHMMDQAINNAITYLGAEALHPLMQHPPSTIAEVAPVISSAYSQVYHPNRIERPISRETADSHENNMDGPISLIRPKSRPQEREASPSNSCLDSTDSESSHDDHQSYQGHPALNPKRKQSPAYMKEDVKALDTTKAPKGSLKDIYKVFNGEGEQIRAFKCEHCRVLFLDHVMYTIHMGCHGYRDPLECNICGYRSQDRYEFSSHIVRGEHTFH
Helios (IKZF2), sequence (Q96SW2 whole entry, the tested form may be a part): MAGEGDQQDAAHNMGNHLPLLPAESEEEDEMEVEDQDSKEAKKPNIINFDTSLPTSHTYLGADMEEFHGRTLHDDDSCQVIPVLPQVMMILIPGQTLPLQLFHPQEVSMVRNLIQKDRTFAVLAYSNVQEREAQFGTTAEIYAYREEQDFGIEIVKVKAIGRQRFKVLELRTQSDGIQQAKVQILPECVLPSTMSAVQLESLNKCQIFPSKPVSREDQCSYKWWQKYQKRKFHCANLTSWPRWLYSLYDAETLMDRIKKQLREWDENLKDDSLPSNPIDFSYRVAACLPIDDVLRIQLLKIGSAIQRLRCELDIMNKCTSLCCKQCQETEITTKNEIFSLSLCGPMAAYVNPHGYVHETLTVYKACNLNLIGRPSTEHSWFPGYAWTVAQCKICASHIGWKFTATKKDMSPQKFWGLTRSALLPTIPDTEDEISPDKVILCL
Helios (IKZF2), sequence (Q16531 whole entry partner, the tested form may be a part): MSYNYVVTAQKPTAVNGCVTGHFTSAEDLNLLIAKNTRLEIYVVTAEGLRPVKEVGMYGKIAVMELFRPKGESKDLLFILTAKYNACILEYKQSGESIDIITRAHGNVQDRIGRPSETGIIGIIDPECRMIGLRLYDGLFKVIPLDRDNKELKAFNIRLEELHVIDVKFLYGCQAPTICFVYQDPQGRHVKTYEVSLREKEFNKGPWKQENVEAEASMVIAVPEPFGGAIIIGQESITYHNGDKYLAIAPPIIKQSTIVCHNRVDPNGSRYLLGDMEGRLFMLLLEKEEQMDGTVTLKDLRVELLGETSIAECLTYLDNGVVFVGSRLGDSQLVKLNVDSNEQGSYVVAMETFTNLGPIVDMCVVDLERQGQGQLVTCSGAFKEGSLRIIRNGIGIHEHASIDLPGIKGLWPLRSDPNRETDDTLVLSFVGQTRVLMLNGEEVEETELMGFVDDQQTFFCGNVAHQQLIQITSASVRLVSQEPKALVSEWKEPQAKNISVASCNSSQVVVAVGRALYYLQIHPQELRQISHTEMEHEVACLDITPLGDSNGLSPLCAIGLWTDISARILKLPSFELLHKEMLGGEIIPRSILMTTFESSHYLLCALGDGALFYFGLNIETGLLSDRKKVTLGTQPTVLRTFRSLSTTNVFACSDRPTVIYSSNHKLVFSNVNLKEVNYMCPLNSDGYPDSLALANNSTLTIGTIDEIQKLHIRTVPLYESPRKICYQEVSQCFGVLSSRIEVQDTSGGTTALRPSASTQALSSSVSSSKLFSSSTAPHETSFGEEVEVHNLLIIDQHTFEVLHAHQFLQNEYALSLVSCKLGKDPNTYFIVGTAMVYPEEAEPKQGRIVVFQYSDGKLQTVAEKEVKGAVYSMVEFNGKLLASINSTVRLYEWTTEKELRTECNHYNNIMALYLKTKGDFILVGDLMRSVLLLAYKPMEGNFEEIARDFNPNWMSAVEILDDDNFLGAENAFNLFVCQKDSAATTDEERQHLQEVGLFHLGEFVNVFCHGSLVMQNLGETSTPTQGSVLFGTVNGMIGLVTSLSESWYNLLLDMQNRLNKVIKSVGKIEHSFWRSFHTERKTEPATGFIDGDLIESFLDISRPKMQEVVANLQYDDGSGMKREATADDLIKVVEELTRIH

With `O=C1CCC(N2Cc3cc(C4CCN(C(=O)c5cc6ccc(O)cc6[nH]5)CC4)ccc3C2=O)C(=O)N1` (stereo not shown) [Compound 18, 3-(5-(1-(6-hydroxy-1H-indole-2-carbonyl)piperidin-4-yl)-1-oxoinsoindolin-2-yl)piperidine-2,6-dione], the remaining activity at 1 µM worked out at 53.6% and the remaining activity at 10 µM is 54.4%.

Take `Cc1c(C(=O)N2CCC(c3ccc4c(c3)CN(C3CCC(=O)NC3=O)C4=O)CC2)[nH]c2cc(CN3CCNCC3)ccc12` (stereo not shown) [Compound 106, 3-(5-(1-(3-methyl-6-(piperazin-1-ylmethyl)-1H-indole-2-carbonyl)piperidin-4-yl)-1-oxoinsoindolin-2-yl)piperidine-2,6-dione dichloride]: the remaining activity at 1 µM came out at 42.8% and the remaining activity at 10 µM came out at 33.6%. For the molecule `Cc1c(C(=O)N2CCC(C#Cc3ccc4c(c3)CN(C3CCC(=O)NC3=O)C4=O)CC2)[nH]c2cc(Cl)ccc12` (stereo not shown) [Compound 43, 3-(5-((1-(6-chloro-3-methyl-1H-indole-2-carbonyl)piperidin-4-yl)ethynyl)-1-oxoinsoindolin-2-yl)piperidine-2,6-dione], the remaining activity at 1 µM stood at 22.7% and the remaining activity at 10 µM is 15.7%. Consider `O=C1CCC(N2Cc3cc(C4CCN(C(=O)c5cc6ccc(Cl)c(Cl)c6[nH]5)CC4)ccc3C2=O)C(=O)N1` (stereo not shown) [Compound 2, 3-(5-(1-(6,7-dichloro-1H-indole-2-carbonyl)piperidin-4-yl)-1-oxoinsoindolin-2-yl)piperidine-2,6-dione], for which the remaining activity at 1 µM came out at 78.3% and the remaining activity at 10 µM was found to be 92.1%. On to `Cc1c(C(=O)N2CCC(=Cc3ccc4c(c3)CN(C3CCC(=O)NC3=O)C4=O)CC2)[nH]c2cc(Cl)ccc12` (stereo not shown) [Compound 44, 3-(5-((1-(6-chloro-3-methyl-1H-indole-2-carbonyl)piperidin-4-ylidene)methyl)-1-oxoinsoindolin-2-yl)piperidine-2,6-dione], for which the remaining activity at 1 µM turned out to be 69.7% and the remaining activity at 10 µM stood at 61.1%. The matching figures for `O=C1CCC(N2Cc3cc(C4CCN(C(=O)c5[nH]c6ccccc6c5F)CC4)ccc3C2=O)C(=O)N1` (stereo not shown) [Compound 37, 3-(5-(1-(3-fluoro-1H-indole-2-carbonyl)piperidin-4-yl)-1-oxoinsoindolin-2-yl)piperidine-2,6-dione]: 99.6% and 77.5%. Turning to `O=C1CCC(N2Cc3cc(C4CCN(C(=O)c5c[nH]c6cc(Cl)ccc56)CC4)ccc3C2=O)C(=O)N1` (stereo not shown) [Comparative Substance 2, 3-(5-(1-(6-chloro-1H-indole-3-carbonyl)piperidin-4-yl)-1-oxoinsoindolin-2-yl)piperidine-2,6-dione, reference compound], the remaining activity at 10 µM stood at 100%.

Consider `Cc1c(C(=O)N2CCC(c3ccc4c(c3)CN(C3CCC(=O)NC3=O)C4=O)CC2)[nH]c2ccc(Cl)cc12` (stereo not shown) [Compound 38, 3-(5-(1-(5-chloro-3-methyl-1H-indole-2-carbonyl)piperidin-4-yl)-1-oxoinsoindolin-2-yl)piperidine-2,6-dione], for which the remaining activity at 1 µM was 80% and the remaining activity at 10 µM was 65.1%.

For the molecule `O=C1CCC(N2Cc3cc(C=C4CCN(C(=O)c5c[nH]c6ccccc56)CC4)ccc3C2=O)C(=O)N1` (stereo not shown) [Compound 25, 3-(5-((1-(1H-indole-3-carbonyl)piperidin-4-ylidene)methyl)-1-oxoinsoindolin-2-yl)piperidine-2,6-dione], the remaining activity at 1 µM was found to be 93.6% and the remaining activity at 10 µM was 87.5%. Regarding `CC(=O)Nc1ccc2c(C)c(C(=O)N3CCC(c4ccc5c(c4)CN(C4CCC(=O)NC4=O)C5=O)CC3)[nH]c2c1` (stereo not shown) [Compound 73, N-(2-(4-(2-(2,6-dioxopiperidin-3-yl)-1-oxoindolin-5-yl)piperidine-1-carbonyl)-3-methyl-1H-indol-6-yl)acetamide], the remaining activity at 1 µM was found to be 59.2% and the remaining activity at 10 µM is 27.8%.

For `O=C1CCC(N2Cc3cc(C4CCN(C(=O)c5cc6cccc(Cl)c6[nH]5)CC4)ccc3C2=O)C(=O)N1` (stereo not shown) [Compound 8, 3-(5-(1-(7-chloro-1H-indole-2-carbonyl)piperidin-4-yl)-1-oxoinsoindolin-2-yl)piperidine-2,6-dione], the remaining activity at 1 µM was found to be 99.5% and the remaining activity at 10 µM is 109%. In the case of `O=C1CCC(N2Cc3cc(C#CCC4CCN(C(=O)c5c[nH]c6ccccc56)CC4)ccc3C2=O)C(=O)N1` (stereo not shown) [Compound 23, 3-(5-(3-(1-(1H-indole-3-carbonyl)piperidin-4-yl)prop-1-yn-1-yl)-1-oxoinsoindolin-2-yl)piperidine-2,6-dione], the remaining activity at 1 µM amounted to 101% and the remaining activity at 10 µM was found to be 99.6%. As for `COc1ccc2c(C)c(C(=O)N3CCC(c4ccc5c(c4)CN(C4CCC(=O)NC4=O)C5=O)CC3)[nH]c2c1` (stereo not shown) [Compound 42, 3-(5-(1-(6-methoxy-3-methyl-1H-indole-2-carbonyl)piperidin-4-yl)-1-oxoinsoindolin-2-yl)piperidine-2,6-dione], the remaining activity at 1 µM turned out to be 13.9% and the remaining activity at 10 µM was 13%. The matching figures for `COc1cccc2[nH]c(C(=O)N3CCC(c4ccc5c(c4)CN(C4CCC(=O)NC4=O)C5=O)CC3)cc12` (stereo not shown) [Compound 11, 3-(5-(1-(4-methoxy-1H-indole-2-carbonyl)piperidin-4-yl)-1-oxoinsoindolin-2-yl)piperidine-2,6-dione]: 99.5% and 98%. For `Cc1cccc2cc(C(=O)N3CCC(c4ccc5c(c4)CN(C4CCC(=O)NC4=O)C5=O)CC3)[nH]c12` (stereo not shown) [Compound 16, 3-(5-(1-(7-methyl-1H-indole-2-carbonyl)piperidin-4-yl)-1-oxoinsoindolin-2-yl)piperidine-2,6-dione], the remaining activity at 1 µM came out at 78.5% and the remaining activity at 10 µM amounted to 80.4%. In the case of `CCc1c(C(=O)N2CCC(c3ccc4c(c3)CN(C3CCC(=O)NC3=O)C4=O)CC2)[nH]c2ccccc12` (stereo not shown) [Compound 29, 3-(5-(1-(3-ethyl-1H-indole-2-carbonyl)piperidin-4-yl)-1-oxoinsoindolin-2-yl)piperidine-2,6-dione], the remaining activity at 1 µM was 73.6% and the remaining activity at 10 µM was determined as 72.4%. Regarding `Cc1c(C(=O)N2CCC(c3ccc4c(c3)CN(C3CCC(=O)NC3=O)C4=O)CC2)[nH]c2ncccc12` (stereo not shown) [Compound 31, 3-(5-(1-(3-methyl-1H-picolo[2,3-b]pyridine-2-carbonyl)piperidin-4-yl)-1-oxoinsoindolin-2-yl)piperidine-2,6-dione], the remaining activity at 1 µM turned out to be 75% and the remaining activity at 10 µM came to 94.3%. Consider `Cc1c(C(=O)N2CCC(c3ccc4c(c3)CN(C3CCC(=O)NC3=O)C4=O)CC2)[nH]c2cc(N)ccc12` (stereo not shown) [Compound 61, 3-(5-(1-(6-amino-3-methyl-1H-indole-2-carbonyl)piperidin-4-yl)-1-oxoinsoindolin-2-yl)piperidine-2,6-dione], for which the remaining activity at 10 µM was 35%. In the case of `Cc1cc2c(C)c(C(=O)N3CCC(c4ccc5c(c4)CN(C4CCC(=O)NC4=O)C5=O)CC3)[nH]c2cc1Cl` (stereo not shown) [Compound 103, 3-(5-(1-(6-chloro-3,5-dimethyl-1H-indole-2-carbonyl)piperidin-4-yl)-1-oxoinsoindolin-2-yl)piperidine-2,6-dione], the remaining activity at 1 µM turned out to be 26.8% and the remaining activity at 10 µM came to 20.6%.

As for `Cc1c(C(=O)N2CCC(c3ccc4c(c3)CN(C3CCC(=O)NC3=O)C4=O)CC2)[nH]c2ccccc12` (stereo not shown) [Compound 21, 3-(5-(1-(3-methyl-1H-indole-2-carbonyl)piperidin-4-yl)-1-oxoinsoindolin-2-yl)piperidine-2,6-dione], the remaining activity at 1 µM was determined as 37% and the remaining activity at 10 µM was 37.3%. `Cc1c(C(=O)N2CCC(c3ccc4c(c3)CN(C3CCC(=O)NC3=O)C4=O)CC2)[nH]c2cc(NS(C)(=O)=O)ccc12` (stereo not shown) [Compound 74, N-(2-(4-(2-(2,6-dioxopiperidin-3-yl)-1-oxoindolin-5-yl)piperidine-1-carbonyl)-3-methyl-1H-indol-6-yl) methanesulfonamide]: the remaining activity at 1 µM was determined as 73.2% and the remaining activity at 10 µM worked out at 75.8%. With `Cc1c(C(=O)N2CCC(c3ccc4c(c3)CN(C3CCC(=O)NC3=O)C4=O)C2)[nH]c2cc(Cl)ccc12` (stereo not shown) [Compound 67, 3-(5-(1-(6-chloro-3-methyl-1H-indole-2-carbonyl)pyrrolidin-3-yl)-1-oxoinsoindolin-2-yl)piperidine-2,6-dione], the remaining activity at 10 µM stood at 78.7%.

As to `O=C1CCC(N2Cc3cc(C4CCN(C(=O)c5cc6cc(F)ccc6[nH]5)CC4)ccc3C2=O)C(=O)N1` (stereo not shown) [Compound 17, 3-(5-(1-(5-fluoro-1H-indole-2-carbonyl)piperidin-4-yl)-1-oxoinsoindolin-2-yl)piperidine-2,6-dione], the remaining activity at 1 µM was 95% and the remaining activity at 10 µM was found to be 96.6%. Regarding `Cc1cccc2[nH]c(C(=O)N3CCC(c4ccc5c(c4)CN(C4CCC(=O)NC4=O)C5=O)CC3)cc12` (stereo not shown) [Compound 14, 3-(5-(1-(4-methyl-1H-indole-2-carbonyl)piperidin-4-yl)-1-oxoinsoindolin-2-yl)piperidine-2,6-dione], the remaining activity at 1 µM was found to be 89% and the remaining activity at 10 µM was 98.4%. As to `CN1CCN(Cc2c(C(=O)N3CCC(c4ccc5c(c4)CN(C4CCC(=O)NC4=O)C5=O)CC3)[nH]c3cc(Cl)ccc23)CC1` (stereo not shown) [Compound 114, 3-(5-(1-(6-chloro-3-((4-methylpiperazin-1-yl)methyl)-1H-indole-2-carbonyl)piperidin-4-yl)-1-oxoinsoindolin-2-yl)piperidine-2,6-dione], the remaining activity at 1 µM came out at 31.8%.
